Experimental findings from ChEMBL document CHEMBL3639310, “Substituted dihydropyrazolones and their use” (2013) are described below.

This assay has as its target Egl nine homolog 1 (Homo sapiens, UniProt Q9GZT9). The assay is described as follows: In Vitro Inhibition Assay: In vitro tests for determination of the activity and selectivity of HIF prolyl 4-hydroxylase inhibitors. Hydroxylated HIF bonds specifically to the von Hippel-Lindau protein-elongin B-elongin C complex (VBC complex). This interaction occurs only if HIF is hydroxylated on a conserved prolyl radical. It is the basis for the biochemical determination of HIF prolyl hydroxylase activity. The test is carried out as described [Oehme F., Jonghaus W., Narouz-Ott L., Huetter J., Flamme I., Anal. Biochem. 330 (1), 74-80 (2004)].

Egl nine homolog 1, sequence (Q9GZT9 whole entry, looked up): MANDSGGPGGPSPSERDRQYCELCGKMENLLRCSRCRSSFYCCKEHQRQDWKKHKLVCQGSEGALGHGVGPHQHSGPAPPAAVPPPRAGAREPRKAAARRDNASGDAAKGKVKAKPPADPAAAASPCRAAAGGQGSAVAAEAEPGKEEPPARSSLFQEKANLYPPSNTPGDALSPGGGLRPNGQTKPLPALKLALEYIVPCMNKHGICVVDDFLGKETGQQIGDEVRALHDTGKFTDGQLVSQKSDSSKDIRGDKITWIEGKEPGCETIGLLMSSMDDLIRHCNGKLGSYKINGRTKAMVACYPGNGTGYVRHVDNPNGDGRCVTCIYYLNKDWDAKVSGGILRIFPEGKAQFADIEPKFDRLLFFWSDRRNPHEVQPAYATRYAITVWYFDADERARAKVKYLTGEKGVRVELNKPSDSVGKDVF

By IC50 is commonly meant the concentration at which inhibition is half-maximal. `N#Cc1cn(-c2c[nH]n(-c3cc(N4CC(F)(F)C4)ncn3)c2=O)cn1` had an IC50 of 90 nM.
